Data as given in ChEMBL document CHEMBL3421592, “Synthesis and QSAR study of novel anti-inflammatory active mesalazine-metronidazole conjugates” (Bioorg Med Chem Lett, 2015).

Tests used:
[1] = tested on: Rattus norvegicus; test: Antiinflammatory activity in Wistar rat assessed as inhibition of carrageenan-induced paw edema at 10 mg/kg indomethacin mol equivalent, ip administered 1 hr prior to carrageenan challenge measured at 1 hr relative to control; format: functional; conditions: route intraperitoneal
[2] = tested on: Rattus norvegicus; test: Antiinflammatory activity in Wistar rat assessed as inhibition of carrageenan-induced paw edema at 10 mg/kg indomethacin mol equivalent, ip administered 1 hr prior to carrageenan challenge measured at 2 hrs relative to control; format: functional; conditions: route intraperitoneal
[3] = tested on: Rattus norvegicus; test: Antiinflammatory activity in Wistar rat assessed as inhibition of carrageenan-induced paw edema at 10 mg/kg indomethacin mol equivalent, ip administered 1 hr prior to carrageenan challenge measured at 3 hrs relative to control; format: functional; conditions: route intraperitoneal
[4] = tested on: Rattus norvegicus; test: Antiinflammatory activity in Wistar rat assessed as inhibition of carrageenan-induced paw edema at 10 mg/kg indomethacin mol equivalent, ip administered 1 hr prior to carrageenan challenge measured at 4 hrs relative to control; format: functional; conditions: route intraperitoneal
[5] = tested on: Rattus norvegicus; test: Antiinflammatory activity in Wistar rat assessed as inhibition of carrageenan-induced paw edema at 10 mg/kg indomethacin mol equivalent, ip administered 1 hr prior to carrageenan challenge measured at 24 hrs relative to control; format: functional; conditions: route intraperitoneal
[6] = tested on: Mus musculus; test: Toxicity in albino mouse assessed as appearance of toxic symptoms at 50 to 100 mg/kg indomethacin mol equivalent, ip measured after 24 hrs; format: organism-based; design: dose 50-100 mg/kg, route intraperitoneal; conditions: in vivo
[7] = tested on: Mus musculus; test: Toxicity in albino mouse assessed as mortality at 50 to 100 mg/kg indomethacin mol equivalent, ip measured after 24 hrs; format: organism-based; design: dose 50-100 mg/kg, route intraperitoneal; conditions: in vivo
[8] = tested on: Rattus norvegicus; test: Ulcerogenic activity in Wistar rat assessed as ulcer index at 10 mg/kg indomethacin mol equivalent, po administered 3 days relative to control; format: toxicity, organism-based; design: dose 10 mg/kg, route oral; conditions: in vivo, 72 h
[9] = tested on: Rattus norvegicus; test: Antiinflammatory activity in Wistar rat assessed as inhibition of carrageenan-induced paw edema at 10 mg/kg, ip administered 1 hr prior to carrageenan challenge measured at 1 hr relative to control; format: functional; conditions: route intraperitoneal
[10] = tested on: Rattus norvegicus; test: Antiinflammatory activity in Wistar rat assessed as inhibition of carrageenan-induced paw edema at 10 mg/kg, ip administered 1 hr prior to carrageenan challenge measured at 2 hrs relative to control; format: functional; conditions: route intraperitoneal
[11] = tested on: Rattus norvegicus; test: Antiinflammatory activity in Wistar rat assessed as inhibition of carrageenan-induced paw edema at 10 mg/kg, ip administered 1 hr prior to carrageenan challenge measured at 3 hrs relative to control; format: functional; conditions: route intraperitoneal
[12] = tested on: Rattus norvegicus; test: Ulcerogenic activity in Wistar rat assessed as ulcer index at 10 mg/kg, po administered 3 days relative to control; format: toxicity, organism-based; design: dose 10 mg/kg, route oral; conditions: in vivo, 72 h

Row | SMILES | inhibition in vivo [1] [%] | inhibition in vivo [2] [%] | inhibition in vivo [3] [%] | inhibition in vivo [4] [%] | inhibition in vivo [5] [%] | Activity [6] | Activity [7] | UI [8] | inhibition in vivo at 10 mg/kg [9] [%] | inhibition in vivo at 10 mg/kg [10] [%] | inhibition in vivo at 10 mg/kg [11] [%] | UI [12]
1 | CC(=O)Nc1ccc(O)c(C(=O)O)c1 | 43.3 | 7.9 | 1.3 | 0 | 0 |  |  |  |  |  |  | 
2 | Cc1ncc([N+](=O)[O-])n1CCOC(=O)c1cc(NC(=O)CNC(=O)OCc2ccccc2)ccc1O | 56.1 | 56.5 | 57 | 52.8 | 17.1 |  |  |  |  |  |  | 
3 | Cc1ncc([N+](=O)[O-])n1CCOC(=O)c1cc(NC(=O)[C@H](C)NC(=O)OCc2ccccc2)ccc1O | 58.5 | 37.5 | 37.1 | 36.1 | 11.6 |  |  |  |  |  |  | 
4 | Cc1ncc([N+](=O)[O-])n1CCOC(=O)c1cc(NC(=O)[C@H](Cc2ccccc2)NC(=O)OCc2ccccc2)ccc1O | 54.8 | 30.1 | 29 | 27.5 | 33.2 |  |  |  |  |  |  | 
5 | Cc1ncc([N+](=O)[O-])n1CCOC(=O)c1cc(NC(=O)[C@@H](NC(=O)OCc2ccccc2)C(C)C)ccc1O | 74.4 | 64.5 | 61.5 | 58.2 | 51.7 | Non-toxic | Non-toxic | 0 |  |  |  | 
6 | Cc1ncc([N+](=O)[O-])n1CCOC(=O)c1cc(NC(=O)[C@H](CCCCN)NC(=O)OCc2ccccc2)ccc1O | 44.3 | 37.8 | 36.9 | 33.5 | 23.4 |  |  |  |  |  |  | 
7 | CC(=O)Nc1ccc(O)c(C(=O)OCCn2c([N+](=O)[O-])cnc2C)c1 | 63.4 | 24.5 | 16.6 | 15.5 | 0 |  |  |  |  |  |  | 
8 | Cc1ncc([N+](=O)[O-])n1CCOC(=O)c1cc(NC(=O)C(C)NC(=O)OCc2ccccc2)ccc1O (racemic) | 57.9 | 47 | 44.8 | 41.1 | 0 |  |  |  |  |  |  | 
9 | COc1ccc2c(c1)c(CC(=O)O)c(C)n2C(=O)c1ccc(Cl)cc1 [INDOMETHACIN] |  |  |  |  |  |  |  |  | 48.3 | 55.3 | 61.3 | 6
10 | Nc1ccc(O)c(C(=O)O)c1 [MESALAMINE] | 63.8 | 53.2 | 57.5 | 52.3 | 38.6 |  |  |  |  |  |  | 
11 | Cc1ncc([N+](=O)[O-])n1CCO [METRONIDAZOLE] | 66.3 | 66.3 | 60.8 | 58.9 | 0 | Non-toxic | Non-toxic | 0 |  |  |  | 
